For orientation: IC50 means the concentration that inhibits the measured activity by half.

This experiment concerns HT-29. The experiment can be described thus: Cytotoxicity in human HT-29 cells assessed as inhibition of cell growth incubated for 72 hrs by MTT assay. It is filed as functional, cell-based. The note with it: HT-29, 72 h.

Each structure is given as a SMILES string. Bounds are passed on as bounds.

On to `C=C1c2[nH]c3ccccc3c2C[C@H]2[N@]3CC[C@]12/C(=C\C)C3`, for which the IC50 was determined as 6.2 µM.

In the case of `C[C@H](O)[C@@]12CN3CCc4c([nH]c5ccccc45)[C@@H]3C[C@@H]1C(=O)CO2`, the IC50 was greater than 30 µM.
